Patent US20220339180A1, “Methods And Compositions For Treating Viral Diseases Using Combination Of Drugs” (priority 2021, published 2022)
Read-outs that look alike come from different tables or passages of the source.

Assays:
human Akt2 [1] = biological target: T1, human Akt2 (Homo sapiens, UniProt P31751); conditions: read-out: Km for ATP; human Akt2, previously reported studies; cited from earlier work
CoV-2 RdRp = CoV-2 RdRp (Severe acute respiratory syndrome coronavirus 2, UniProt P0DTD1); assay type: biochemical, SARS-CoV-2
human Akt2 [2] = biological target: T1, human Akt2; assay: ADP-Glo Kinase assay, human Akt2; assay type: biochemical; conditions: 500 nM compound, excess of ATP
SARS-CoV-2 = assay type: cell-based
[3] = substrate: Nc1ncnc2c1ncn2[C@@H]1O[C@H](COP(=O)(O)OP(=O)(O)OP(=O)(O)O)[C@@H](O)[C@H]1O; assay: purified protein, by the assay type; conditions: other: human Akt2

## Nc1ncnc2c1ncn2[C@@H]1O[C@H](COP(=O)(O)OP(=O)(O)OP(=O)(O)O)[C@@H](O)[C@H]1O [ATP, Adenosine triphosphate]
Human Akt2 [1]
  Km: ~350 µM

## CN(C)S(=O)(=O)c1ccc2c(c1)/C(=C/c1cc3c([nH]1)CCCC3)C(=O)N2 [SU6656]
CoV-2 RdRp
  inhibition of kinase like activity of CoV-2 RdRp: significantly abrogated
Human Akt2 [2]
  inhibition of kinase activity of human Akt2: significantly inhibited

## CNC(=O)c1cc(Oc2ccc(NC(=O)Nc3ccc(Cl)c(C(F)(F)F)c3)cc2)ccn1 [Sorafenib]
SARS-CoV-2; 1, 5, 25 and 50 μM, concentrations similar to Remdesivir
  cell survival of SARS-CoV-2 infected epithelial cells: improves cell survival
SARS-CoV-2; 1-50 μM, Remdesivir as control
  reduction in the infection: significant reduction in the infection
SARS-CoV-2; Sorafenib 4 μM or remdesivir 1 μM alone
  clearing of virus from infected cells, single agent: have effect to clear the virus
SARS-CoV-2; ex-vivo SARS-CoV-2 infection in cell line
  viral load: significantly reduces viral load
Human Akt2 [2]
  inhibition of kinase activity of human Akt2: significantly inhibited

## CC(Cc1ccc(O)c(O)c1)C(C)Cc1ccc(O)c(O)c1 (stereo not drawn) [compound 4534, Nordihydroguaiaretic acid]
CoV-2 RdRp
  inhibition of kinase like activity of CoV-2 RdRp: failed to inhibit

## NC(=O)c1ncn([C@@H]2O[C@H](COP(=O)(O)OP(=O)(O)OP(=O)(O)O)[C@@H](O)[C@H]2O)n1 [compound 122108, Ribavirin 5′-triphosphate]
CoV-2 RdRp; 500 nM compound, excess of ATP
  inhibition of kinase like activity of CoV-2 RdRp: very little effects
CoV-2 RdRp; 1000 nM compound
  inhibition of kinase like activity of CoV-2 RdRp: conspicuous inhibitions

B1: human Akt2 (Homo sapiens) (protein)
chain: MNEVSVIKEGWLHKRGEYIKTWRPRYFLLKSDGSFIGYKERPEAPDQTLPPLNNFSVAECQLMKTERPRPNTFVIRCLQWTTVIERTFHVDSPDEREEWMRAIQMVANSLKQRAPGEDPMDYKCGSPSDSSTTEEMEVAVSKARAKVTMNDFDYLKLLGKGTFGKVILVREKATGRYYAMKILRKEVIIAKDEVAHTVTESRVLQNTRHPFLTALKYAFQTHDRLCFVMEYANGGELFFHLSRERVFTEERARFYGAEIVSALEYLHSRDVVYRDIKLENLMLDKDGHIKITDFGLCKEGISDGATMKTFCGTPEYLAPEVLEDNDYGRAVDWWGLGVVMYEMMCGRLPFYNQDHERLFELILMEEIRFPRTLSPEAKSLLAGLLKKDPKQRLGGGPSDAKEVMEHRFFLSINWQDVVQKKLLPPFKPQVTSEVDTRYFDDEFTAQSITITPPDRYDSLGLLELDQRTHFPQFSYSASIRE
[3]
  Km: 300 µM
